In patent publication US6410792B1, “Amide derivatives and methods for using the same as selective neuropeptide Y receptor antagonists” (Bayer Corporation, priority 1997, dated 2002):
Like-named read-outs stand apart in the source and are kept apart here.

Tests used:
Human NPY1 receptor = target: T1, Human NPY1 receptor (Homo sapiens, UniProt P25929); assay: Human NPY1 receptor binding assay ([125I]PYY, SK-N-MC cells)
T1 construct: host or cells: SK-N-MC cells
T1 sequence (P25929 1-384): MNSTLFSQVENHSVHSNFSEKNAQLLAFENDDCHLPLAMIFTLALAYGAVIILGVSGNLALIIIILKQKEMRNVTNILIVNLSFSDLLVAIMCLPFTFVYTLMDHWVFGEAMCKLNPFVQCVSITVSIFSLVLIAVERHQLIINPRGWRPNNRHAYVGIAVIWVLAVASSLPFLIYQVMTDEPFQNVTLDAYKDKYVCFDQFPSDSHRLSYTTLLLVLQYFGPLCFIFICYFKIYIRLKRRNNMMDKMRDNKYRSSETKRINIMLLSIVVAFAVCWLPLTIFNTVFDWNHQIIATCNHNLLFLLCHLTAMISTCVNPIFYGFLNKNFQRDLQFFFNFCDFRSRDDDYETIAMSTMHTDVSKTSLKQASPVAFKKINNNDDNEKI
Summary of the method: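 Confluent SK-N-MC cells preincubated 30 min at room temperature in serum-free DMEM/25 mM HEPES pH 7.3 with BSA, bacitracin and PMSF, then incubated 3 h at room temperature with compound and ~50 pM [125I]PYY. Nonspecific binding defined with 1 μM NPY; bound radioactivity counted after Triton X-100 lysis.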

Y2 receptor = target: T2, Y2 receptor (Homo sapiens, UniProt P49146); assay: Y2 receptor binding assay ([125I]PYY, membrane protein); settings: [125I]PYY, membrane protein; read-out: hNPY2 IC50
T2 sequence (P49146 1-381): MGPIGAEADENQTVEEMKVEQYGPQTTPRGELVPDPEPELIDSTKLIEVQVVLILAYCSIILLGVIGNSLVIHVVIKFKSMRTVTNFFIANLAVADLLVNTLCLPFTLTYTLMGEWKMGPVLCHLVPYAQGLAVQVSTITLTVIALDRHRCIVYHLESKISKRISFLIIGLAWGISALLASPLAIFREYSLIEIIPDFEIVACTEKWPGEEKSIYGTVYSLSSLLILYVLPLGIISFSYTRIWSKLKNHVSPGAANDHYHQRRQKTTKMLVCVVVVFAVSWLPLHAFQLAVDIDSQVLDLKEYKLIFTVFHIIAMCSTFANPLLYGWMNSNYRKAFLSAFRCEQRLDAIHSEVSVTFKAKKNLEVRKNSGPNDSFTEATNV
Summary of the method: (§1)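 Filtration binding with membrane protein and drug dilution, 2 h at room temperature with mixing, radioactivity counted by gamma or scintillation. Y2: 25 pM [125I]PYY in Krebs-Ringer bicarbonate pH 7.4 with 0.01% BSA, nonspecific by 1 μM NPY. Y4/PP1: 50 pM [125I]hPP in HEPES-buffered saline pH 7.4 with protease inhibitors and 0.3% BSA, nonspecific by 1 μM hPP.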

human Y4/PP1 receptor = human Y4/PP1 receptor (Homo sapiens, UniProt P50391); assay: Human Y4/PP1 receptor binding assay ([125I]human PP, membrane protein)
Sequence of human Y4/PP1 receptor (P50391 whole entry): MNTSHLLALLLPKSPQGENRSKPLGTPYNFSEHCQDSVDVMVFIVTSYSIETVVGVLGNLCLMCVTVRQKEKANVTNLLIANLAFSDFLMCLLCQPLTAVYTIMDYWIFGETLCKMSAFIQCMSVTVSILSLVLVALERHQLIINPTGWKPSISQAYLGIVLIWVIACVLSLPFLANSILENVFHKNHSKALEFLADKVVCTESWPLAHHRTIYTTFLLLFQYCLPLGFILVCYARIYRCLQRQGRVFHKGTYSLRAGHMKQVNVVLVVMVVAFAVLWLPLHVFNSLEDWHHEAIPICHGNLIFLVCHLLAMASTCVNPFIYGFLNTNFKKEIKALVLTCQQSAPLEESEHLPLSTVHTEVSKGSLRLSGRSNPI
Summary of the method: as §1

Human NPY5 receptor = target: T3, Human NPY5 receptor (Homo sapiens, UniProt Q15761); assay: Human NPY5 receptor binding assay ([125I]PYY, membrane protein)
T3 sequence (Q15761 1-445): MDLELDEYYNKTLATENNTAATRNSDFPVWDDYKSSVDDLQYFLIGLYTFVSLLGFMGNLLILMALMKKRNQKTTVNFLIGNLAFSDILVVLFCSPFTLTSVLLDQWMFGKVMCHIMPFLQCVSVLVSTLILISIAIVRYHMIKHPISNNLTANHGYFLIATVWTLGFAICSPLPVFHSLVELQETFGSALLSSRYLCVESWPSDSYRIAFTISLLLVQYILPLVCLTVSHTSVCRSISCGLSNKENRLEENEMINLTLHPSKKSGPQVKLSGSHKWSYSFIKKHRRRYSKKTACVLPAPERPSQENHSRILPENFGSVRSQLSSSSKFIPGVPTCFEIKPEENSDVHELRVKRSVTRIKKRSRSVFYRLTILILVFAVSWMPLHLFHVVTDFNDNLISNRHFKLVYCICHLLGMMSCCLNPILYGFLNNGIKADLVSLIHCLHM
Summary of the method: (§2)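 Membrane protein incubated 2 h at room temperature with 75-100 pM porcine [125I]PYY and compound in pH 7.4 Tris buffer with salts, 0.1% BSA and bacitracin. Nonspecific binding with 1 μM PYY. Filtration, then gamma or scintillation counting.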

Rat NPY5 receptor [1] = target: T4, Rat NPY5 receptor (Rattus norvegicus, UniProt Q63634); assay: Rat NPY5 receptor binding assay ([125I]PYY, membrane protein)
T4 sequence (Q63634 1-445): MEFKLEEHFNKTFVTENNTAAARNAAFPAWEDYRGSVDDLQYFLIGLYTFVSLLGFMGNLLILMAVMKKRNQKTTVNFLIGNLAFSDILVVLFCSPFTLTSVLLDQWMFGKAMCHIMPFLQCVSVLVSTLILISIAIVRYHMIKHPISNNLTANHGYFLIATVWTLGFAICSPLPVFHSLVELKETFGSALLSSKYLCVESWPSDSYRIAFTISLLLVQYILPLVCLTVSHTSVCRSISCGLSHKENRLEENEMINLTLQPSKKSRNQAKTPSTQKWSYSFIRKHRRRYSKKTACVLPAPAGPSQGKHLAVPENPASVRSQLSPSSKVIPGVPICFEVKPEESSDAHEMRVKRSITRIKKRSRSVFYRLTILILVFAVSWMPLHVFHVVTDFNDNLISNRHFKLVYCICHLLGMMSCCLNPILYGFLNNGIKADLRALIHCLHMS
Summary of the method: as §2

Rat NPY5 receptor [2] = target: T4, Rat NPY5 receptor; assay: Rat NPY5 cyclase assay (in vitro functional assay, forskolin-stimulated adenylate cyclase, cAMP); assay type: cell-based; settings: 20 min; 10 μM; percentage of forskolin-stimulated adenylate cyclase; read-out: rNPY5 % FSAC (10 μM)
Summary of the method: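 Cells stably expressing rat NPY5 receptor, in serum-free DMEM with 10 mM HEPES pH 7.4 and 1 mM IBMX, received […] plus compound for 20 min at 37 °C. Reactions were stopped by boiling. cAMP was quantified by radioimmunoassay and expressed as % of forskolin-stimulated adenylate cyclase.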

[3] = [125I]PYY, SK-N-MC cells, read-out: hNPYI IC50
[4] = [125I]human PP, membrane protein, read-out: hNPY4 IC50
[5] = [125I]PYY, read-out: hNPY5 IC50
[6] = [125I]PYY, read-out: rNPY5 IC50

Row | Structure (SMILES) | IC50 (Human NPY1 receptor; [3]) [µM] | IC50 (Y2 receptor) [µM] | IC50 (human Y4/PP1 receptor; [4]) [µM] | IC50 (Human NPY5 receptor; [5]) [µM] | IC50 (Rat NPY5 receptor [1]; [6]) [µM] | activity at 10 µM (Rat NPY5 receptor [2]) [%] | melting point [°C] | IC50 (Human NPY5 receptor; hNPY5 IC50, [125I]PYY) [µM] | IC50 (Rat NPY5 receptor [1]; rNPY5 IC50, [125I]PYY) [µM] | IC50 (Human NPY1 receptor) [µM] | IC50 (human Y4/PP1 receptor) [µM]
1 | CCCc1ccc(NC(=O)CN2CCC(n3c(=O)[nH]c4ccccc43)CC2)cc1 [Compound 253, 2-[4-(2-Oxo-2,3-dihydro-benzoimidazol-1-yl)-piperidin-1-yl]-N-(4-propyl-phenyl)-acetamide] | > 5 | > 5 | > 5 | 0.063 | 0.05 | 99 | 116 to 117 |  |  |  | 
2 | O=C(CN1CCC(n2c(=O)[nH]c3ccccc32)CC1)Nc1ccc(-c2ccc(F)cc2)cc1 [Compound 259, N-(4′-Fluoro-biphenyl-4-yl)-2-[4-(2-oxo-2,3-dihydro-benzoimidazol-1-yl)-piperidin-1-yl]-acetamide] | > 5 | > 5 | > 5 | 0.15 | 0.087 | 101 | 228 to 229 |  |  |  | 
3 | O=C(CN1CCC(n2c(=O)[nH]c3ccccc32)CC1)Nc1ccc(-c2ccccc2)cc1 [Compound 275, N-Biphenyl-4-yl-2-[4-(2-oxo-2,3-dihydro-benzoimidazol-1-yl)-piperidin-1-yl]-acetamide] | > 5 | > 5 | > 5 | 0.042 | 0.019 | 103 | 180 to 181 |  |  |  | 
4 | CC(=O)NC1CCN(CC(=O)Nc2ccc(C3CCCCC3)cc2)C1 (stereo not drawn) [Compound 290, 2-(3-Acetylamino-pyrrolidin-1-yl)-N-(4-cyclohexyl-phenyl)-acetamide] | > 5 | > 5 | > 5 | 0.038 | 0.019 | 101 | 105 to 110 |  |  |  | 
5 | Cl.N#CC(c1ccccc1)C1CCN(CC(=O)Nc2ccc(C3CCCCC3)cc2)CC1 (stereo not drawn) [Compound 300, 2-[4-(Cyano-phenyl-methyl)-piperidin-1-yl]-N-(4-cyclohexyl-phenyl)-acetamide; hydrochloride] | > 5 | > 5 | > 5 | 0.013 | 0.013 | 90 | 150 |  |  |  | 
6 | CC(=O)NCC1(c2ccccc2)CCN(CC(=O)Nc2ccc(C3CCCCC3)cc2)CC1.O=C(O)C(=O)O [Compound 301, 2-[4-(Acetylamino-methyl)-4-phenyl-piperidin-1-yl]-N-(4-cyclohexyl-phenyl)-acetamide; compound with oxalic acid] | > 5 | > 5 | > 5 |  |  | 101 | 146 | 0.032 | 0.032 |  | 
7 | CCNC1(C(N)=O)CCN(CC(=O)Nc2ccc(C3CCCCC3)cc2)CC1.O=C(O)C(=O)O [Compound 302, 1-[(4-Cyclohexyl-phenylcarbamoyl)-methyl]-4-ethylamino-piperidine-4-carboxylic acid amide; compound with oxalic acid] | > 5 | > 5 | > 5 | 0.006 | 0.006 | 107 | 184 |  |  |  | 
8 | CCC(=O)C1(c2ccccc2)CCN(CC(=O)Nc2ccc(C3CCCCC3)cc2)CC1.Cl [Compound 303, N-(4-Cyclohexyl-phenyl)-2-(4-phenyl-4-propionyl-piperidin-1-yl)-acetamide; hydrochloride] |  | > 5 |  | 0.004 |  | 93 | 252 |  | 0.006 | > 5 | > 5
9 | CC(=O)NC1CCN(CC(=O)Nc2ccc(C(=O)c3ccccc3)cc2)C1.O=C(O)C(=O)O (stereo not drawn) [Compound 304, 2-(3-Acetylamino-pyrrolidin-1-yl)-N-(4-benzoyl-phenyl)-acetamide; compound with oxalic acid] | > 5 | > 5 | > 5 | 0.15 | 0.18 | 85 | 100 |  |  |  | 
